Source: paper PMC6778019 (Contraception, 2019)
Like-named read-outs stand apart in the source and are kept apart here.

Columns and labels:
[1] = Steady-state pharmacokinetics of LNG and EE from day 21 of a COC cycle; format: in vivo, HIV-positive women; conditions: for AUClast Change (%) / AUCτ Change (%) / CL Change (%) / Cmax Change (%) / Cmin Change (%) / T1/2 Change (%) / Tmax Change (%) / Vss Change (%): Ritonavir arm vs control arm; for concentration at 24 h: oral, concentration 24 h after the last dose; for concentration at 24 h / Cmax / AUC: mean±SD; for Cmax: last dose of the cycle; for AUC: LNG AUCτ, AUC 24 h of the last dose of the 21-day cycle
[2] = cited from earlier work; for EE AUC / LNG AUC: COC EE 30 mcg / norgestrel 300 mcg
[3] = cited from earlier work
[4] = female, human, serum, po, T1/2, Ritonavir arm, half-life by NCA, median
[5] = COC users taking protease inhibitors

## C#C[C@]1(O)CC[C@H]2[C@@H]3CCc4cc(O)ccc4[C@H]3CC[C@@]21C [EE, ethinyl estradiol]
[1]
  AUClast Change (%): 18.2%
  AUCτ Change (%): 21.8%
  CL Change (%): −15.1%
  Cmax Change (%): 33.7%
  Cmin Change (%): 8.5%
  T1/2 Change (%): 10.5%
  Tmax Change (%): 0.0%
  Vss Change (%): −24.1%
[1]; Ritonavir arm, median (95% Confidence interval)
  Tmax: 1.0 (1.0,2.9) h
[1]; Ritonavir arm, volume at steady state by NCA, median (95% Confidence interval)
  Vss: 475 (370,671) L
[1]; comparison between groups
  EE pharmacokinetic profiles, ritonavir vs control: not different between groups
[1]; female, human, serum, EE Cmin, Control arm (n=10)
  concentration at 24 h: 0.0492 ± 0.0141 ng/mL
[1]; female, human, serum, EE Cmin, Ritonavir arm
  concentration at 24 h: 0.0533 ± 0.0147 ng/mL
[1]; female, human, serum, po
  Tmax: 1 h
[1]; female, human, serum, po, EE Cmax, Control arm (n=10)
  Cmax: 0.163 ± 0.0438 ng/mL
[1]; female, human, serum, po, T1/2, Control arm (n=10), half-life by NCA, median
  half-life: 28.4 h
[1]; [4]
  half-life: 31.3 h
[2]; women not taking nevirapine
  EE AUC: 1457 ng·mL/h
[2]; women taking nevirapine
  EE AUC: 1384 ng·mL/h

## C#C[C@]1(O)CC[C@H]2[C@@H]3CCC4=CC(=O)CC[C@@H]4[C@H]3CC[C@@]21CC [LNG, levonorgestrel]
[1]
  AUClast Change (%): 32.0%
  AUCτ Change (%): 32.6%
  CL Change (%): −16.7%
  Cmax Change (%): 27.0%
  Cmin Change (%): 34.4%
  T1/2 Change (%): 8.2%
  Tmax Change (%): 33.3%
  Vss Change (%): −13.2%
[1]; female, human, in vivo, po
  half-life: 42.6 h
[1]; female, human, serum, LNG Cmin, Control arm (n=10)
  concentration at 24 h: 3.7 ± 1.29 ng/mL
[1]; female, human, serum, LNG Cmin, Ritonavir arm (n=5)
  concentration at 24 h: 4.97 ± 1.15 ng/mL
[1]; female, human, serum, po, Control arm (n=10)
  AUC: 113 ± 37 ng·h/mL
[1]; female, human, serum, po, Ritonavir arm (n=5)
  AUC: 150 ± 28 ng·h/mL
[1]; female, human, serum, po, LNG Cmax, Control arm (n=10)
  Cmax: 7.62 ± 2.29 ng/mL
[1]; female, human, serum, po, LNG Cmax, Ritonavir arm (n=5)
  Cmax: 9.68 ± 1.81 ng/mL
[1]; [4]
  half-life: 46.2 h
[1]; women on ritonavir vs control
  increase in LNG exposure: approximately 30%
[2]; women not taking nevirapine
  LNG AUC: 114 ng·mL/h
[2]; women taking nevirapine
  LNG AUC: 147 ng·mL/h

## C#C[C@]1(O)CC[C@H]2[C@@H]3CCC4=CC(=O)CC[C@@H]4[C@H]3CC[C@@]21C [norethindrone]
[3]; [5]
  decrease in norethindrone AUC: 18%
  increase in AUC of norethindrone: 110%
[3]; norethindrone progestin-only pill, women using ritonavir
  increase in norethindrone AUC: 50%

## C#CC1(O)CC[C@H]2[C@@H]3CCC4=CC(=O)CC[C@@H]4[C@H]3CC[C@@]21CC (stereo partly drawn) [norgestrel]
[2]; women taking ARV vs not taking ARV medication
  increase in norgestrel AUC: approximately 30%
